# Source: patent US20240101563A1, “NOVEL COMPOUNDS” (AC Immune SA, priority 2022, published 2024)
# What was measured:
# [1] = system: IL-1β; test: Inhibition of IL-1β in an LPS/ATP induced acute peritonitis mouse model; format: in vivo; conditions: BALB/c mice; dosed 30 min before LPS i.p.; ATP i.p. 120 min after LPS; PW 30 min post ATP; vs LPS-ATP, 0 mg/kg
# Experimental: 1.2.1 The efficacy of Example compounds 53 and 18 in an LPS/ATP-induced acute peritonitis was evaluated: LPS (Lipopolysaccharide) and ATP (Adenosine triphosphate) were administered to BALB/c mice by intraperitoneal (i.p.) injection to elicit an acute inflammatory response in the peritoneal cavity.
# Mice (BALB/c mice, aged 6-8 w, females) were challenged with 50 μg/kg LPS by intraperitoneal (i.p.) injection. 120 min after LPS administration, ATP was delivered by i.p. injection at 50 mM in 200 μL. […]
# Cytometric Bead Array (CBA) Assay for IL-1β detection was performed on the peritoneal wash supernatant as follows: supernatants or cytokine standards were incubated with the capture beads mixture for 1 hour at room temperature. […] After washing in Wash Buffer containing 1×PBS, blocking protein, and detergent, the beads were re-suspended and analyzed by flow cytometry.
# The cytokine analysis raw data were analyzed using FACP. […] Data were expressed as the Mean±SD. […]
# [2] = system: NLRP3 inflammasome pathway; test: NLRP3 inflammasome pathway activation assay, MSU stimulation, IL-1β HTRF; format: cell-based; conditions: Homo sapiens, 3 h, read-out: IC50 Human monocyte-like cells MSU
# Experimental: (§1) The following assays were used to determine the inhibitory activity of test compounds on the NLRP3 inflammasome pathway using common stimuli Nigericin (Invivogen) or monosodium urate crystals (MSU) (Invivogen).
# (§2) Human monocyte-like cells were cultured in RPMI-1640 Glutamax medium supplemented with 10% heat inactivated FBS (Fetal Bovine Serum) and 50 U/mL penicillin-streptomycin (Life Technologies).
# (§3) Human monocyte-like cells were seeded at 25000 per well in a 384-well plate and were differentiated overnight into macrophages with 10 ng/mL PMA (Phorbol Myristate Acetate). The following day, medium containing 10 ng/mL LPS (Lipopolysaccharide) was added. After 3 hours of LPS priming, concentrations of test compound in the range from […] were added 30 min prior to NLRP3 inflammasome pathway stimulation with Nigericin 3.75 μM or MSU 200 μg/mL for 3 h.
# (§4) For IL-1p quantification, supernatants were analyzed using HTRF kit according to the manufacturer's instructions (Cisbio 62HIL1BPEH). Briefly, in a 384-well ProxiPlate™ microplate, 8 μl of sample was mixed, with 5 μl of Anti-IL1β Cryptate antibody (40×) and Anti-IL1β XL antibody (40×). Then, incubated overnight at RT. Reading was done using an EnVision Reader (PerkinElmer).
# (§5) IC50 (concentration corresponding to 50% inhibition) were determined using GraphPad Prism 9.
# [3] = system: NLRP3 inflammasome pathway; test: NLRP3 inflammasome pathway activation assay, Nigericin stimulation, IL-1β HTRF; format: cell-based; conditions: Homo sapiens, 3 h, Table 7; PMA-differentiated, LPS-primed cells; Nigericin 3.75 μM for 3 h; IL-1β release; read-out: IC50 Human monocyte-like cells Nigericin
# Experimental: as §1, §2, §3, §4, §5
# [4] = Table 7, PMA-differentiated, LPS-primed cells, MSU 200 μg/mL for 3 h, IL-1β release
# [5] = Table 8 (formula II′/II vs formula III), MSU 200 μg/mL for 3 h, IL-1β release
SMILES,"IC50 [2, 4] [nM]",IC50 [3] [nM],other results
"Cc1cc(C(F)(F)F)cc(O)c1-c1nc2nc(NC3CCN(C)C3)ccc2n1C (racemic) [Example 18, 3-methyl-2-(1-methyl-5-((1-methylpyrrolidin-3-yl)amino)-1H-imidazo[4,5-b]pyridin-2-yl)-5-(trifluoromethyl)phenol]",,,IL-1β release in peritoneal wash (PW) [1]: significantly reduced IL-1p release in PW in a dose response manner
"CCn1c(-c2ccc(C(F)(F)F)cc2O)nc2nc(NC3CCN(C)C3)ccc21 (single isomer, unassigned) [Example 9, 2-(1-ethyl-5-((1-methylpyrrolidin-3-yl)amino)-1H-imidazo[4,5-b]pyridin-2-yl)-5-(trifluoromethyl)phenol]",< 100,100 to 1000,
"Cc1cc(C(F)(F)F)cc(O)c1-c1nc2nc(N[C@H]3CCCC[C@@H]3O)ccc2n1C (single isomer, unassigned) [Example 20, 2-(5-((2-hydroxycyclohexyl)amino)-1-methyl-1H-imidazo[4,5-b]pyridin-2-yl)-3-methyl-5-(trifluoromethyl)phenol]",100 to 1000,> 1000,
COc1ccc2c(n1)nc(-c1c(C)cc(C(F)(F)F)cc1O)n2C [Example 23],< 100,100 to 1000,
"COc1ccc2c(n1)nc(-c1ccc(C(F)(F)F)cc1O)n2C [Example 24, 2-(5-methoxy-1-methyl-1H-imidazo[4,5-b]pyridin-2-yl)-5-(trifluoromethyl)phenol]",100 to 1000,< 100,
"CN1CCC[C@@H](Oc2ccc3c(n2)nc(-c2ccc(C(F)(F)F)cc2O)n3C)C1 [Example 25, (R)-2-(1-methyl-5-((1-methylpiperidin-3-yl)oxy)-1H-imidazo[4,5-b]pyridin-2-yl)-5-(trifluoromethyl)phenol]",< 100,100 to 1000,
"Cc1cc(C(F)(F)F)cc(O)c1-c1nc2nc(O[C@@H]3CCCN(C)C3)ccc2n1C [Example 26, (R)-3-methyl-2-(1-methyl-5-((1-methylpiperidin-3-yl)oxy)-1H-imidazo[4,5-b]pyridin-2-yl)-5-(trifluoromethyl)phenol]",< 100,100 to 1000,
"COc1ccc2c(n1)nc(-c1c(C)cc(Cl)cc1O)n2C [Example 29, 5-chloro-2-(5-methoxy-1-methyl-1H-imidazo[4,5-b]pyridin-2-yl)-3-methylphenol]",< 100,100 to 1000,
"CCn1c(-c2c(C)cc(C(F)(F)F)cc2O)nc2nc(OCCO)ccc21 [Example 32, 2-(1-ethyl-5-(2-hydroxyethoxy)-1H-imidazo[4,5-b]pyridin-2-yl)-3-methyl-5-(trifluoromethyl)phenol]",< 100,100 to 1000,
"Cc1cc(C(F)(F)F)cc(O)c1-c1nc2nc(N3CCN(C)CC3)cnc2n1C [Example 68, 3-methyl-2-(1-methyl-5-(4-methylpiperazin-1-yl)-1H-imidazo[4,5-b]pyrazin-2-yl)-5-(trifluoromethyl)phenol]",100 to 1000,,
"Cc1cc(Cl)cc(O)c1-c1nc2nc(N3CCN(C)CC3)cnc2n1C [Example 69, 5-chloro-3-methyl-2-(1-methyl-5-(4-methylpiperazin-1-yl)-1H-imidazo[4,5-b]pyrazin-2-yl)phenol]",100 to 1000,,
"COc1nc2nc(-c3c(C)cc(Cl)cc3O)n(C)c2cc1CO [Example 70, 5-chloro-2-[6-(hydroxymethyl)-5-methoxy-1-methyl-imidazo[4,5-b]pyridin-2-yl]-3-methyl-Phenol]",< 100,,
"Cc1cc(C(F)(F)F)cc(O)c1-c1nc2nc(N3CC(N(C)C)C3)cnc2n1C [Example 71, 2-(5-(3-(dimethylamino)azetidin-1-yl)-1-methyl-1H-imidazo[4,5-b]pyrazin-2-yl)-3-methyl-5-(trifluoromethyl)phenol]",100 to 1000,,
"COc1nc2c(nc1N[C@@H]1CCN(C)C1)nc(-c1c(C)cc(C(F)(F)F)cc1O)n2C [Example 72, (R)-2-(6-methoxy-1-methyl-5-((1-methylpyrrolidin-3-yl)amino)-1H-imidazo[4,5-b]pyrazin-2-yl)-3-methyl-5-(trifluoromethyl)phenol]",< 100,,
"Cc1cc(Cl)cc(O)c1-c1nc2nc(N3CCOCC3)cnc2[nH]1 [Example 73, 5-chloro-3-methyl-2-(5-morpholino-1H-imidazo[4,5-b]pyrazin-2-yl)phenol]",100 to 1000,,
"Cc1cc(F)cc(O)c1-c1nc2nc(N(C)[C@@H]3CCN(C)C3)cnc2n1C [Example 74, (R)-5-fluoro-3-methyl-2-(1-methyl-5-(methyl(1-methylpyrrolidin-3-yl)amino)-1H-imidazo[4,5-b]pyrazin-2-yl)phenol]",< 100,,
"Cc1cc(C(F)(F)F)cc(O)c1-c1nc2nc(N3CCC(C)(O)CC3)cnc2n1C [Example 75, 1-[2-[2-hydroxy-6-methyl-4-(trifluoromethyl)phenyl]-1-methyl-imidazo[4,5-b]pyrazin-5-yl]-4-methyl-piperidin-4-ol]",,,IC50 [2]: 100 to 1000 nM
"Cc1cc(Cl)cc(O)c1-c1nc2nc(N3CCC(O)CC3)cnc2n1C [Example 78, 1-[2-(4-chloro-2-hydroxy-6-methyl-phenyl)-1-methyl-imidazo[4,5-b]pyrazine-5-yl]piperidin-4-ol]",< 100,,
"Cc1cc(C(F)(F)F)cc(O)c1-c1nc2nc(N3CCOCC3)ccc2n1C [Example 79, 3-methyl-2-(1-methyl-5-morpholino-imidazo[4,5-b]pyridin-2-yl)-5-(trifluoromethyl)phenol]",< 100,,
"Cc1cc(Cl)cc(O)c1-c1nc2nc(N3CCC(C)(O)CC3)cnc2n1C [Example 80, 1-[2-(4-chloro-2-hydroxy-6-methyl-phenyl)-1-methyl-imidazo[4,5-b]pyrazin-5-yl]-4-methyl-piperidin-4-ol]",< 100,,
"Cc1cc(Cl)cc(O)c1-c1nc2nc(N(C)[C@@H]3CCN(C)C3)cnc2n1C [Example 81, 5-chloro-3-methyl-2-[1-methyl-5-[methyl-[(3R)-1-methylpyrrolidin-3-yl]amino]imidazo-[4,5-b]pyrazin-2-yl]phenol]",< 100,,
"Cn1c(NCCO)nc2nc(-c3ccc(C(F)(F)F)cc3O)ccc21 [Example 82, 2-(2-((2-hydroxyethyl)amino)-1-methyl-1H-imidazo[4,5-b]pyridin-5-yl)-5-(trifluoro-methyl)phenol]",,,"IC50 [2, 5]: > 1500 nM"
"CN1CCC[C@@H](Nc2nc3nc(-c4ccc(C(F)(F)F)cc4O)ccc3n2C)C1 [Example 83, (R)-2-(1-methyl-2-((1-methylpiperidin-3-yl)amino)-1H-imidazo[4,5-b]pyridin-5-yl)-5-(trifluoromethyl)phenol]",,,"IC50 [2, 5]: > 1500 nM"
"Cc1cc(C(F)(F)F)cc(O)c1-c1nc2nc(N3CC(C)(O)C3)cnc2n1C [Example 84, 1-(2-(2-hydroxy-6-methyl-4-(trifluoromethyl)phenyl)-1-methyl-1H-imidazo[4,5-b]pyrazin-5-yl)-3-methylazetidin-3-ol]",100 to 1000,,
"CN1CC[C@@H](Oc2cnc3c(n2)nc(-c2c(O)cc(Cl)cc2F)n3C)C1 [Example 87, 5-chloro-3-fluoro-2-[1-methyl-5-[(3R)-1-methylpyrrolidin-3-yl]oxy-imidazo[4,5-b]pyrazin-2-yl]phenol]",< 100,,
Cc1cc(Cl)cc(O)c1-c1nc2nc(C(F)(F)F)ccc2n1C [Examples 50],100 to 1000,,
